From US5451688A, “Hexahydronaphthalene ester derivatives, their preparation and their therapeutic uses” (Sankyo Company, Limited, priority 1992, dated 1995)
pIC50: −log10 of the molar value. Read-outs that look alike come from different tables or passages of the source.

Key:
HMG-CoA reductase = biological target: T1, HMG-CoA reductase (Rattus norvegicus, UniProt P51639); assay: HMG-CoA reductase inhibitory activity; type: biochemical; settings: rat liver microsomal fraction, 0.2 mM [14C]HMG-CoA, pH 7.4, 15 minutes at 37° C.
T1 sequence (P51639 1-887): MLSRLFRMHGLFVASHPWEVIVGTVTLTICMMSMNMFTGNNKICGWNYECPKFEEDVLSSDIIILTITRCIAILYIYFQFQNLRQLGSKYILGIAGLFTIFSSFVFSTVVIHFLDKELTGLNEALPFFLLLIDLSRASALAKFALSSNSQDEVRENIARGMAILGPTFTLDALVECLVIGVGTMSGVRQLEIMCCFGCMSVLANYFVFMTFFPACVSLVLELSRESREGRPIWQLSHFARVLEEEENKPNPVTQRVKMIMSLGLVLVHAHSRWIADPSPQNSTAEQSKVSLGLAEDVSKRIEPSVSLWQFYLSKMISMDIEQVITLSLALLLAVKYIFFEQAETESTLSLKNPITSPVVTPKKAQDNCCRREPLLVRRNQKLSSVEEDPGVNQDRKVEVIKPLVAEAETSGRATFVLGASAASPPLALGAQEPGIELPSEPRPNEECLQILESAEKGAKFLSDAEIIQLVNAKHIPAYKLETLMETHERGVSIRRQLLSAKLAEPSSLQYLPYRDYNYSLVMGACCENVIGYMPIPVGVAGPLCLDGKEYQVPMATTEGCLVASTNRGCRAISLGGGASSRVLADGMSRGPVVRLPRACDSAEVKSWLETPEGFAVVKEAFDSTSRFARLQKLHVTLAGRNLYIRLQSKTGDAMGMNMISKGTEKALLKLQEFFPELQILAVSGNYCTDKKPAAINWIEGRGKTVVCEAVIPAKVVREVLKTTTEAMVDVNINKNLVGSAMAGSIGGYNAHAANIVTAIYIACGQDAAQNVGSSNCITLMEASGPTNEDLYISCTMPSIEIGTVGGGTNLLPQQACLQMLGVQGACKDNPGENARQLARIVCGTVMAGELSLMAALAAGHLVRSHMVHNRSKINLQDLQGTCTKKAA

[1] = system: sterol synthesis in the liver; assay: inhibitory activity against sterol synthesis in mouse liver; type: in vivo; settings: read-out: Sterol-synthesis inhibitory activity ED50
Description: Detemination of inhibitory activity against sterol synsthesis in mouse liver
Sterol synthesis in the liver in mice was measured by the method of Koga et al. [Biochem. Biophys.
15 μl of [^14 C]acetate was intraperitoneally injected into each mouse. One hour later, the animal was sacrificed by decapitation and the liver was excised. Sterol synthesis in the liver was measured by the incorporation of [^14 C]activity into the digitoninprecipitable sterols.
The sterol synthesis activity in a control animal receiving only a 1% Tween 80 solution was defined as 100%.

[2] = mice, oral, 2 hours before [14C]acetate, dose required to inhibit sterol synthesis in the liver by 50%

Row | Structure (SMILES) | pIC50 (HMG-CoA reductase) | ED50 ([1]; po) | ED50 [1, 2]
1 | CCCC(CCC)C(=O)O[C@H]1C[C@H](O)C=C2C=C[C@H](C)[C@H](CC[C@@H](O)C[C@@H](O)CC(=O)[O-])[C@H]21.[Na+] | 7.45 | 0.15 mg/kg | –
2 | CCC(C)(CC)C(=O)O[C@H]1C[C@H](O)C=C2C=C[C@H](C)[C@H](CC[C@@H](O)C[C@@H](O)CC(=O)O)[C@H]21 [Example 51, Sodium (3R,5R)-3,5-dihydro-7-[(1S,2S,6S,8S,8aR)-6-hydroxy-2-methyl-8-(2-ethyl-2-methylbutyryloxy)-1,2,6,7,8,8a-hexahydro-1-naphthyl]heptanoate] | 7.47 | – | 0.063 mg/kg
3 | CCC(CC)(CC)C(=O)O[C@H]1C[C@H](O)C=C2C=C[C@H](C)[C@H](CC[C@@H](O)C[C@@H](O)CC(=O)O)[C@H]21 [Example 52, Sodium (3R,5R)-3,5-dihydroxy-7-[(1S,2S,6S,8S,8aR)-6-hydroxy-2-methyl-8-(2.2-diethylbutyryloxy)-1,2,6,7,8,8a-hexahydro-1-naphthyl]heptanoate] | 7.49 | – | 0.054 mg/kg
4 | C=CCC(CC)(CC)C(=O)O[C@H]1C[C@H](O)C=C2C=C[C@H](C)[C@H](CC[C@@H](O)C[C@@H](O)CC(=O)O)[C@H]21 [Example 64, Sodium (3R,5R),3,5-dihydroxy-7-[(1S,2S,6S,8S,8aR)-6-hydroxy-2-methyl-8-(2,2-diethyl-4-pentenoyloxy)-1,2,6,7,8,8a-hexahydro-1-naphthyl]heptanoate] | 7.46 | – | 0.13 mg/kg
5 | C=CCC(CC)(CC=C)C(=O)O[C@H]1C[C@H](O)C=C2C=C[C@H](C)[C@H](CC[C@@H](O)C[C@@H](O)CC(=O)O)[C@H]21 [Example 65, Sodium (3R,5R)-3,5-dihydroxy-7-[(1S,2S,6S,8S,8aR)-6-hydroxy-2-methyl-8-(2-allyl-2-ethyl-4-pentenoyloxy)-1.2.6,7,8,8a-hexahydro-1-naphthyl]heptanoate] | 7.44 | – | 0.19 mg/kg
6 | CCC[C@](C)(CC)C(=O)O[C@H]1C[C@H](O)C=C2C=C[C@H](C)[C@H](CC[C@@H](O)C[C@@H](O)CC(=O)O)[C@H]21 [Example 67, Sodium (3R,5R)-3,5-dihydroxy-7-[(2S,2S,6S,8S,8aR)-6-hydroxy-2-methyl-8-(2-ethyl-2-methylvaleryloxy)-1,2,6,7,8,8a-hexahydro-1-naphthyl]heptanoate] | 7.49 | – | 0.048 mg/kg
7 | CCCCC(C)(C)C(=O)O[C@H]1C[C@H](O)C=C2C=C[C@H](C)[C@H](CC[C@@H](O)C[C@@H](O)CC(=O)O)[C@H]21 [Example 69, Sodium (3R,5R)-3,5-dihydroxy-7-[(1S,2S,6S,8S,8aR)-6-hydroxy-2-methyl-8-[2,2-dimethylhexanoyloxy)-1,2.6.7,8,8a-hexahydro-1-naphthyl]heptanoate] | 7.48 | – | 0.028 mg/kg
8 | CCC(C)(C)C(=O)OC1CC(O)C=C2C=CC(C)C(CCC3CC(O)CC(=O)O3)C21 (stereo not shown) [Prior art cpd., reference compound] | 7.35 | – | 0.58 mg/kg
